What follows are molecules tested against T1, human CaMKIIδ (Homo sapiens, UniProt Q13557) (assay: Evaluation of in vitro CaMKII inhibitory activity (binding assay, TR-FRET)). Conditions: human CaMKIIδ, TR-FRET binding assay; class symbols A/B/C; read-out: Act (CaMKII inhibitory activity, binding assay).
T1 construct: Full-length, glutathione-S-transferase(GST)-tagged, human CaMKIIδ was purchased from Carna Biosciences; purchased Carna Biosciences (CaMKIIδ); Wako Pure Chemical Industries (calmodulin) 02-111
Protocol: Evaluation of In Vitro CaMKII Inhibitory Activity (Binding Assay)
In vitro CaMKIIδ inhibitory activity was evaluated by a binding assay.
Full-length bovine calmodulin was purchased from Wako Pure Chemical Industries (Osaka, Japan). Terbium-labeled anti-GST anti body (Tb-anti-GST Ab) was purchased from Life Technologies (Carlsbad, CA, USA). Fluorescent probe ligand, 5,5-difluoro-7,9-dimethyl-3-(3-oxo-3-((3-((4-(3-(piperazin-1-yl)phenyl)pyrimidin-2-yl)amino)phenyl)amino) propyl)-5H-dipyrrolo[1,2-c:2′,1′-f]
Time-resolved fluorescence resonance energy transfer (TR-FRET) assay
The fluorescent probe ligand, 5,5-difluoro-7,9-dimethyl-3-(3-oxo-3-((3-((4-(3-(piperazin-1-yl)phenyl)pyrimidin-2-yl)amino)phenyl)amino) propyl)-5H-dipyrrolo[1,2-c:2′,1′-f] […] After shaded incubation of the protein-probe mixture on ice for 30 min, the premix was dispensed in the assay plate including test inhibitors with 4 fold dilution series of eight concentrations. After 1 hr incubation at room temperature, TR-FRET signals were measured in duplicate using an EnVision microplate reader (Perkin Elmer, Waltham, MA, USA).
The half maximal inhibitory concentration (IC50) of test compounds was calculated by fitting the data with the logistic equation using XLfit (IDBS, Guildford, UK).
With `C[C@@H](Cn1cnnn1)Oc1cc(-c2ccn3ncc(-c4cc(F)ccc4C#N)c3n2)ccc1F` [compound 157] the IC50 was less than 10 nM.
Work on `CNC(=O)c1ccnc(-n2cnc3ccc(-c4ccc(F)c(O[C@@H](C)Cn5cnnn5)c4)nc32)c1` [compound 116] yielded an IC50 of less than 10 nM.
`COC1CN(C(=O)c2cccc(-n3cnc4ccc(-c5ccc(F)c(O[C@@H](C)Cn6cnnn6)c5)nc43)c2C#N)C1` [compound 229, 2-[5-(4-fluoro-3-{[(2S)-1-(1H-tetrazol-1-yl)propan-2-yl]oxy}phenyl)-3H-imidazo[4,5-b]pyridin-3-yl]-6-(3-methoxyazetidine-1-carbonyl)benzonitrile] was tested, and the IC50 was 10 to 100 nM.
`C[C@@H](Cn1cnnn1)Oc1cc(-c2ccc3ncc(-c4cccc(N)c4C#N)n3n2)ccc1F` [compound 181] was tested, and the IC50 was less than 10 nM.
`C[C@@H](Cn1cnnn1)Oc1cc(-c2ccn3ncc(-c4cncnc4)c3n2)ccc1F` [compound 22] gave an IC50 of less than 10 nM.
With `CCNC(=O)c1cccc(-c2cnn3ccc(-c4ccc(F)c(O[C@@H](C)Cn5cnnn5)c4)nc23)c1` [compound 8] the IC50 was less than 10 nM.
`COc1ccccc1-c1cnn2ccc(-c3ccc(F)c(O[C@@H](C)Cn4cnnn4)c3)nc12` [compound 31] gave an IC50 of less than 10 nM.
`C[C@@H](Cn1cnnn1)Oc1cccc(-c2ccn3ncc(-c4cccc(C(=O)NCCC5CCCCC5)c4)c3n2)c1` [compound 111] was tested, and the IC50 was 10 to 100 nM.
`COc1ccc(-c2cnn3ccc(-c4ccc(F)c(O[C@@H](C)Cn5cnnn5)c4)nc23)cc1` [compound 30] showed an IC50 of less than 10 nM.
`C[C@@H](Cn1cnnn1)Oc1cc(-c2ccn3ncc(-c4ccc(N5CCNCC5)cc4)c3n2)ccc1F` [compound 56] gave an IC50 of less than 10 nM.
Molecule `C[C@@H](Cn1cnnn1)Oc1cccc(-c2ccn3ncc(-c4cccc(C(=O)NCCc5ccccc5)c4)c3n2)c1` [compound 105] has an IC50 of 10 to 100 nM.
For `C[C@@H](Cn1cnnn1)Oc1cc(-c2ccn3ncc(-c4cccc(OCC5CC5)c4)c3n2)ccc1F` [compound 54], the IC50 was 10 to 100 nM.
`C[C@@H](Cn1cnnn1)Oc1cccc(-c2ccn3ncc(-c4cccc(C(=O)NCCn5ccnc5)c4)c3n2)c1` [compound 95] was tested, and the IC50 was less than 10 nM.
`C[C@@H](Cn1cnnn1)Oc1cc(-c2ccn3ncc(-c4cccc(C#N)c4)c3n2)ccc1F` [compound 29] gave an IC50 of less than 10 nM.
In the case of `C[C@@H](Cn1cnnn1)Oc1cc(-c2ccc3ncc(-c4cc(C(=O)O)ccc4C#N)n3n2)ccc1F` [compound 147], the IC50 is reported as 10 to 100 nM.
In the case of `C[C@@H](Cn1cnnn1)Oc1cc(-c2ccc3ncc(-c4cccc(OCC5CCOCC5)c4C#N)n3n2)ccc1F` [compound 203], the IC50 is reported as less than 10 nM.
In the case of `C[C@@H](Cn1cnnn1)Nc1ccnc(-c2ccc3ncc(-c4cc(F)ccc4C#N)n3n2)c1` [compound 483], the IC50 is reported as less than 10 nM.
In the case of `C[C@@H](Cn1cnnn1)Oc1cc(-c2ccc3ncc(-c4cccc(OCCCC(=O)O)c4C#N)n3n2)ccc1F` [compound 217], the IC50 is reported as less than 10 nM.
`C[C@@H](Cn1cnnn1)Oc1cccc(-c2ccn3ncc(-c4cccc(C(=O)NC5CN(Cc6ccccc6)C5)c4)c3n2)c1` [compound 86] was tested, and the IC50 was less than 10 nM.
`COCCCOc1cccc(-c2cnc3ccc(-c4ccc(F)c(O[C@@H](C)Cn5cnnn5)c4)nn23)c1C#N` [compound 172] gave an IC50 of less than 10 nM.
Work on `CNC(=O)c1ccccc1-c1cnn2ccc(-c3ccc(F)c(O[C@@H](C)Cn4cnnn4)c3)nc12` [compound 34] yielded an IC50 greater than 100 nM.
`CC(C)c1ccc(-c2cnn3ccc(-c4ccc(F)c(O[C@@H](C)Cn5cnnn5)c4)nc23)cc1` [compound 53] was tested, and the IC50 was greater than 100 nM.
With `C[C@@H](Cn1cnnn1)Oc1cc(-c2ccc3ncc(-c4cccc(OCC5CCC5)c4C#N)n3n2)ccc1F` [compound 210] the IC50 was less than 10 nM.

Same assay, conditions: in vitro CaMKII inhibitory activity (binding assay), human CaMKIIδ; read-out: Act
Work on `COc1cc(F)cc(-c2cnc3ccc(-c4cc(O[C@@H](C)Cn5cnnn5)ccn4)nn23)c1C#N` [compound 438] yielded an IC50 of less than 10 nM.
`COc1cc(Cl)cc(-c2cnc3ccc(-c4cncc(O[C@@H](C)Cn5cnnn5)n4)nn23)c1C#N` [compound 455] was tested, and the IC50 was less than 10 nM.
Molecule `C[C@@H](Cn1cnnn1)Oc1cccc(-c2ccc3ncc(-c4nc(F)c(F)cc4C#N)n3n2)c1` [compound 451] has an IC50 of less than 10 nM.
`C[C@@H](Cn1cnnn1)Oc1cc(-c2ccc3ncc(-c4cn(C)nc4C(F)(F)F)n3n2)ccc1F` [compound 265] showed an IC50 of 10 to 100 nM.
`Cc1ccnc(-c2cnc3ccc(-c4cccc(O[C@@H](C)Cn5cnnn5)c4)nn23)c1C#N` [compound 378] showed an IC50 of less than 10 nM.
For `C[C@@H](Cn1cnnn1)Oc1cc(-c2ccc3ncc(-c4[nH]ccc(=O)c4C#N)n3n2)ccc1F` [compound 431, 2-[6-(4-fluoro-3-{[(2S)-1-(1H-tetrazol-1-yl)propan-2-yl]oxy}phenyl)imidazo[1,2-b]pyridazin-3-yl]-4-oxo-1,4-dihydropyridine-3-carbonitrile], the IC50 was greater than 100 nM.
`C[C@@H](Cn1cnnn1)Oc1cccc(-c2ccc3ncc(-c4ccc(C#N)c(F)n4)n3n2)c1` [compound 468] was tested, and the IC50 was less than 10 nM.
`C[C@@H](Cn1cnnn1)Oc1cc(-c2ccn3ncc(-c4cc(F)ccc4C#N)c3n2)ccn1` [compound 319] was tested, and the IC50 was less than 10 nM.
For `COc1ncc(C)cc1-c1cnc2ccc(-c3cccc(O[C@@H](C)Cn4cnnn4)c3)nn12` [compound 327], the IC50 was less than 10 nM.
In the case of `C[C@@H](Cn1cnnn1)Oc1cc(-c2ccc3ncc(-c4nccc(N)c4C#N)n3n2)ccc1F` [compound 234], the IC50 is reported as less than 10 nM.
`C[C@@H](Cn1cnnn1)Oc1cccc(-c2ccc3ncc(-c4cc(F)cn(CC#N)c4=O)n3n2)c1` [compound 360] was tested, and the IC50 was less than 10 nM.
`COc1ncc(C#N)c(-c2cnc3ccc(-c4cccc(O[C@@H](C)Cn5cnnn5)c4)nn23)n1` [compound 362] showed an IC50 of less than 10 nM.
Molecule `C[C@@H](Cn1cnnn1)Oc1cccc(-c2ccc3ncc(-c4cccc(C(F)F)c4C#N)n3n2)c1` [Example 413, 2-(difluoromethyl)-6-[6-(3-{[(2S)-1-(1H-tetrazol-1-yl)propan-2-yl]oxy}phenyl)imidazo[1,2-b]pyridazin-3-yl]benzonitrile] has an IC50 of less than 10 nM.
`C[C@@H](Cn1cnnn1)Oc1cccc(-c2ccc3ncc(-c4c(F)cccc4C#N)n3n2)n1` [compound 461] gave an IC50 of 10 to 100 nM.
For `C[C@@H](Cn1cnnn1)Oc1cccc(-c2ccc3ncc(-c4cc(F)cnc4C#N)n3n2)c1` [compound 434], the IC50 was less than 10 nM.
For `C[C@@H](Cn1cnnn1)Oc1cncc(-c2ccc3ncc(-c4cc(F)ccc4C#N)n3n2)n1` [Example 326, 4-fluoro-2-[6-(6-{[(2S)-1-(1H-tetrazol-1-yl)propan-2-yl]oxy}pyrazin-2-yl)imidazo[1,2-b]pyridazin-3-yl]benzonitrile], the IC50 was less than 10 nM.
Work on `COc1ncnc(-c2cnc3ccc(-c4ccc(F)c(O[C@@H](C)Cn5cnnn5)c4)nn23)c1C#N` [compound 402] yielded an IC50 of less than 10 nM.
`C[C@@H](Cn1cnnn1)Oc1cccc(-c2ccc3ncn(-c4ncccc4C#N)c3n2)c1` [Example 284, 2-[5-(3-{[(2S)-1-(1H-tetrazol-1-yl)propan-2-yl]oxy}phenyl)-3H-imidazo[4,5-b]pyridin-3-yl]pyridine-3-carbonitrile] showed an IC50 of less than 10 nM.
For `C[C@@H](Cn1cnnn1)Oc1cncc(-c2ccc3ncn(-c4cc(F)cc(OC(F)F)c4C#N)c3n2)n1` [compound 406], the IC50 was 10 to 100 nM.
`C[C@@H](Cn1cnnn1)Oc1cccc(-c2ccc3ncc(-c4nccc(N(C)C)c4C#N)n3n2)c1` [compound 356] showed an IC50 of less than 10 nM.
With `Cc1ccc(C#N)c(-c2cnc3ccc(-c4cccc(O[C@@H](C)Cn5cnnn5)c4)nn23)n1` [compound 278] the IC50 was less than 10 nM.
`C[C@@H](Cn1cnnn1)Oc1cc(-c2ccc3ncc(-c4cccnc4C#N)n3n2)ccc1F` [compound 248] was tested, and the IC50 was less than 10 nM.

Reference: US12528816B2, “Substituted imidazo [1,2-b] pyridazines and [1, 2, 4] triazolo [ 4,3-b] pyridazines as camkii inhibitors” (Cardurion Pharmaceuticals, INC., priority 2020, dated 2026)
